Reference: patent publication EP0500802B1, “LIPOSOMAL COMPOSITIONS” (priority 1989, dated 1991)

Experiment: Ocular biodistribution of 14C-labelled cromolyn free drug after topical ocular instillation (liquid scintillation counting of tissues)
Type: in vivo, New Zealand white rabbits
Details: for TISSUE CONCENTRATION WEIGHTED MEAN: Examples 1-3
Method: A. Preparation of test article. The sodium cromoglycate free drug test article used in the ocular biodistribution studies (Examples 1, 2 and 3) was prepared according to the following formula: […]
B. The [propane-2-¹⁴C]cromolyn sodium used in the biodistribution studies was prepared as follows: 1,3-dichloro[2-¹⁴C]propan-2-ol was reacted with 2,6-dihydroxyacetophenone to give 1,3-bis (2-acetyl-3-hydroxy phenoxy)-2-hydroxy[2-¹⁴C]propane. This was treated with base and diethyl oxalate followed by acid catalysed cyclisation to give diethyl [propane-2-¹⁴C]cromolyn. Hydrolysis with sodium hydroxide gave the final product which was purified by crystallisation from water acetone. C. Specification and Handling of Experimental Animals and Tissues. • 1. Description of Experimental Animals: Female, New Zealand white rabbits (Hare Marland) weighing 2-3 kg were used in these studies. Upon receipt each animal was assigned an identification number and examined for gross signs of general health. The animals were individually housed in standard rabbit cages and given access to food and water ad libitum. Animals were received approximately one week before initiation of the study. Prior to the study the animals were randomly assigned to treatment groups using either a random number table or generator. Immediately before treatment the ocular tissues were examined for signs of irritation. If irritation was observed, either another animal was substituted or the condition noted. Food was removed at the time of treatment Water was available ad libitum throughout. • 2. Topical Ocular Instillation of Test Article: Animals were treated unilaterally by topical ocular instillation using a positive displacement pipet. The eyelids were gently retracted and the dose applied onto the cornea taking care to avoid touching the tissue with the pipet tip. The animal was positioned such that the dose flowed into the lower cul-de-sac. After treatment the animals were returned to their cages. • 3. Collection of Plasma Sample: Immediately prior to euthanasia, animals were placed in a standard rabbit restrainer. A small amount of xylene was applied to an eartip to enhance blood flow. The lateral ear vein was lanced and approximately 500 ul of blood collected in a Microtainer Brand Tube with EDTA (Becton Dickinson). The tubes were mixed by inversion and centrifuged in a microfuge for 10 minutes. A 200 ul aliquot of plasma was transferred to a scintillation vial for further processing of the sample. • 4. Euthanasia: Animals were euthanized by intravenous injection of a lethal dose of T61 Euthanasia Fluid (Hoechst-Roussel) into a lateral ear vein. Death was verified by absence of respiration, heart beat, and ocular reflexes. • 5. Dissection of Ocular Tissues. • a. Removal of Aqueous Humor: Aqueous humor was removed using a 1 ml disposable, plastic syringe equipped with a 5/8"-27g needle. The needle was inserted into the anterior chamber at the limbus. The fluid was gently withdrawn and transferred to a preweighed scintillation vial. • b. Removal of Globe, Conjunctiva, and Nictitating Membrane: The eyelids were retracted using 6" curbed hemostats. Incisions were made at the corners of the eye to facilitate dissection of the conjunctiva. The palpebral conjunctiva and nictitating membrane were dissected free of the eyelids, muscle, and connective tissue using Wilmer-Converse conjunctiva scissors. The conjunctiva and nictitating membrane were grasped with straight Kirby tissue forceps to form a sack around the globe. The sack and its contents were removed from the socket as a unit using heavy curved nucleation scissors. Excess blood was removed from the outside of the sac by gentle blotting with gauze pads. • c. Dissection of Conjunctiva, and Nictitating Membrane: The nictitating membrane was grasped with straight Kirby tissue forceps. The conjunctiva was cut with heavy curved eye scissors along one edge of the nictitating membrane. […]

O=C(O)c1cc(=O)c2c(OCC(O)COc3cccc4oc(C(=O)O)cc(=O)c34)cccc2o1 [CROMOLYN FREE DRUG, 5,5' -[(2-Hydroxy-1,3-propanediyl)bis-(oxy)]bis[4-oxo-4H-1-benzopyran-2-carboxylic acid]]
TISSUE CONCENTRATION MEAN (AQUEOUS HUMOR, Rx eye, 2 HR, EXAMPLE 1): 70 ng Cromolyn/g or ml Tissue | TISSUE CONCENTRATION MEAN (AQUEOUS HUMOR, Rx eye, 2 HR, EXAMPLE 2): 36 ng Cromolyn/g or ml Tissue | TISSUE CONCENTRATION MEAN (AQUEOUS HUMOR, Rx eye, 2 HR, EXAMPLE 3): 129 ng Cromolyn/g or ml Tissue | TISSUE CONCENTRATION WEIGHTED MEAN (AQUEOUS HUMOR, Rx eye, 2 HR): 39 ng Cromolyn/g or ml Tissue | TISSUE CONCENTRATION MEAN (AQUEOUS HUMOR, Rx eye, 4 HR, EXAMPLE 1): 37 ng Cromolyn/g or ml Tissue | TISSUE CONCENTRATION MEAN (AQUEOUS HUMOR, Rx eye, 4 HR, EXAMPLE 2): 29 ng Cromolyn/g or ml Tissue | TISSUE CONCENTRATION MEAN (AQUEOUS HUMOR, Rx eye, 4 HR, EXAMPLE 3): 68 ng Cromolyn/g or ml Tissue | TISSUE CONCENTRATION WEIGHTED MEAN (AQUEOUS HUMOR, Rx eye, 4 HR): 35 ng Cromolyn/g or ml Tissue | TISSUE CONCENTRATION MEAN (AQUEOUS HUMOR, Rx eye, 8 HR, EXAMPLE 1): 16 ng Cromolyn/g or ml Tissue | TISSUE CONCENTRATION MEAN (AQUEOUS HUMOR, Rx eye, 8 HR, EXAMPLE 2): 13 ng Cromolyn/g or ml Tissue | TISSUE CONCENTRATION MEAN (AQUEOUS HUMOR, Rx eye, 8 HR, EXAMPLE 3): 10 ng Cromolyn/g or ml Tissue | TISSUE CONCENTRATION WEIGHTED MEAN (AQUEOUS HUMOR, Rx eye, 8 HR): 13 ng Cromolyn/g or ml Tissue | TISSUE CONCENTRATION MEAN (CONJUNCTIVA, Rx eye, 2 HR, EXAMPLE 1): 3501 ng Cromolyn/g or ml Tissue | TISSUE CONCENTRATION MEAN (CONJUNCTIVA, Rx eye, 2 HR, EXAMPLE 2): 3316 ng Cromolyn/g or ml Tissue | TISSUE CONCENTRATION MEAN (CONJUNCTIVA, Rx eye, 2 HR, EXAMPLE 3): 2332 ng Cromolyn/g or ml Tissue | TISSUE CONCENTRATION WEIGHTED MEAN (CONJUNCTIVA, Rx eye, 2 HR): 2887 ng Cromolyn/g or ml Tissue | TISSUE CONCENTRATION MEAN (CONJUNCTIVA, Rx eye, 4 HR, EXAMPLE 1): 742 ng Cromolyn/g or ml Tissue | TISSUE CONCENTRATION MEAN (CONJUNCTIVA, Rx eye, 4 HR, EXAMPLE 2): 683 ng Cromolyn/g or ml Tissue | TISSUE CONCENTRATION MEAN (CONJUNCTIVA, Rx eye, 4 HR, EXAMPLE 3): 772 ng Cromolyn/g or ml Tissue | TISSUE CONCENTRATION WEIGHTED MEAN (CONJUNCTIVA, Rx eye, 4 HR): 716 ng Cromolyn/g or ml Tissue | TISSUE CONCENTRATION MEAN (CONJUNCTIVA, Rx eye, 8 HR, EXAMPLE 1): 687 ng Cromolyn/g or ml Tissue | TISSUE CONCENTRATION MEAN (CONJUNCTIVA, Rx eye, 8 HR, EXAMPLE 2): 578 ng Cromolyn/g or ml Tissue | TISSUE CONCENTRATION MEAN (CONJUNCTIVA, Rx eye, 8 HR, EXAMPLE 3): 614 ng Cromolyn/g or ml Tissue | TISSUE CONCENTRATION WEIGHTED MEAN (CONJUNCTIVA, Rx eye, 8 HR): 607 ng Cromolyn/g or ml Tissue | TISSUE CONCENTRATION MEAN (CORNES, Rx eye, 2 HR, EXAMPLE 1): 1005 ng Cromolyn/g or ml Tissue | TISSUE CONCENTRATION MEAN (CORNES, Rx eye, 2 HR, EXAMPLE 2): 478 ng Cromolyn/g or ml Tissue | TISSUE CONCENTRATION MEAN (CORNES, Rx eye, 2 HR, EXAMPLE 3): 683 ng Cromolyn/g or ml Tissue | TISSUE CONCENTRATION WEIGHTED MEAN (CORNES, Rx eye, 2 HR): 519 ng Cromolyn/g or ml Tissue | TISSUE CONCENTRATION MEAN (CORNES, Rx eye, 4 HR, EXAMPLE 1): 487 ng Cromolyn/g or ml Tissue | TISSUE CONCENTRATION MEAN (CORNES, Rx eye, 4 HR, EXAMPLE 2): 298 ng Cromolyn/g or ml Tissue | TISSUE CONCENTRATION MEAN (CORNES, Rx eye, 4 HR, EXAMPLE 3): 381 ng Cromolyn/g or ml Tissue | TISSUE CONCENTRATION WEIGHTED MEAN (CORNES, Rx eye, 4 HR): 337 ng Cromolyn/g or ml Tissue | TISSUE CONCENTRATION MEAN (CORNES, Rx eye, 8 HR, EXAMPLE 1): 160 ng Cromolyn/g or ml Tissue | TISSUE CONCENTRATION MEAN (CORNES, Rx eye, 8 HR, EXAMPLE 2): 165 ng Cromolyn/g or ml Tissue | TISSUE CONCENTRATION MEAN (CORNES, Rx eye, 8 HR, EXAMPLE 3): 127 ng Cromolyn/g or ml Tissue | TISSUE CONCENTRATION WEIGHTED MEAN (CORNES, Rx eye, 8 HR): 162 ng Cromolyn/g or ml Tissue | TISSUE CONCENTRATION MEAN (IRIS-CILIARY BODY, Rx eye, 2 HR, EXAMPLE 3): 56 ng Cromolyn/g or ml Tissue | TISSUE CONCENTRATION MEAN (IRIS-CILIARY BODY, Rx eye, 4 HR, EXAMPLE 3): 29 ng Cromolyn/g or ml Tissue | TISSUE CONCENTRATION MEAN (NICTITATING MEMBRANE, Rx eye, 2 HR, EXAMPLE 1): 2136 ng Cromolyn/g or ml Tissue | TISSUE CONCENTRATION MEAN (NICTITATING MEMBRANE, Rx eye, 2 HR, EXAMPLE 2): 2438 ng Cromolyn/g or ml Tissue | TISSUE CONCENTRATION MEAN (NICTITATING MEMBRANE, Rx eye, 2 HR, EXAMPLE 3): 2618 ng Cromolyn/g or ml Tissue | TISSUE CONCENTRATION WEIGHTED MEAN (NICTITATING MEMBRANE, Rx eye, 2 HR): 2319 ng Cromolyn/g or ml Tissue | TISSUE CONCENTRATION MEAN (NICTITATING MEMBRANE, Rx eye, 4 HR, EXAMPLE 1): 480 ng Cromolyn/g or ml Tissue | TISSUE CONCENTRATION MEAN (NICTITATING MEMBRANE, Rx eye, 4 HR, EXAMPLE 2): 484 ng Cromolyn/g or ml Tissue | TISSUE CONCENTRATION MEAN (NICTITATING MEMBRANE, Rx eye, 4 HR, EXAMPLE 3): 576 ng Cromolyn/g or ml Tissue | TISSUE CONCENTRATION WEIGHTED MEAN (NICTITATING MEMBRANE, Rx eye, 4 HR): 494 ng Cromolyn/g or ml Tissue | TISSUE CONCENTRATION MEAN (NICTITATING MEMBRANE, Rx eye, 8 HR, EXAMPLE 1): 348 ng Cromolyn/g or ml Tissue | TISSUE CONCENTRATION MEAN (NICTITATING MEMBRANE, Rx eye, 8 HR, EXAMPLE 2): 350 ng Cromolyn/g or ml Tissue | TISSUE CONCENTRATION MEAN (NICTITATING MEMBRANE, Rx eye, 8 HR, EXAMPLE 3): 462 ng Cromolyn/g or ml Tissue | TISSUE CONCENTRATION WEIGHTED MEAN (NICTITATING MEMBRANE, Rx eye, 8 HR): 383 ng Cromolyn/g or ml Tissue | TISSUE CONCENTRATION MEAN (PLASMA, 2 HR, EXAMPLE 3): 1 ng Cromolyn/g or ml Tissue | Cromolyn levels in the aqueous humor of the untreated eye (any time point (2, 4, 8 hours), Example 1 results text): no detectable
